Experimental data: patent US6916471B2, “Red blood cells loaded with S-nitrosothiol and uses therefor” (Duke University, priority 1995, dated 2005)

Key:
[1] = test system: Rats; test: Hemodynamics (blood pressure) at different O2 concentrations; format: in vivo, rat; conditions: 1 μmol/kg infused over 1 minute; 10 min. post-infusion
Experimental: Rats were anesthetized by intraperitoneal injection of pentobarbital, and the femoral arteries and veins accessed by local cutdown. The artery was then cannulated and the blood pressure monitored continuously using a P23 XL pressure transducer (Viggo Spectramed, Oxnard, Calif.) attached to a Gould recorder. The femoral vein was used for infusion of drugs and red blood cells containing SNO-Hb (1 ml over 1 min.) and an IBM PC (WINDAQ 200, Dataq Instruments, Inc.; Akron, Ohio) was used for data acquisition.
Drugs were infused through the femoral vein at 1 μmol/kg infused over 1 minute after blood pressure had stabilized (approximately 30 min). Measurements shown (FIG. 11A) were taken at 10 min. post-infusion of drug. […] P<0.05 vs. SNO-Hb; *P<0.05, **P<0.01) vs. baseline blood pressure. n=5-6 for each drug.
The hypotensive effects of SNO-RBCs were potentiated by pre-administration of the NO synthase inhibitor N^G-monomethyl-L-arginine (L-NMMA; 50 mg/kg). n=8 for each data point. Curves different by ANOVA (P<0.01), *P<0.05 vs. L-NMMA. The amount of hemolysis in these experiments was trivial. Infusion of the hemolysate had no effect on blood pressure.

[2] = test system: Sprague-Dawley rats; test: Local cerebral blood flow by H2-sensitive microelectrodes; format: in vivo, rat; conditions: for local cerebral blood flow: 1 μmol/kg infused over 3 minutes
Experimental: Adult male Sprague-Dawley rats (290-350 g) were anesthetized with sodium pentobarbital (50 mg/kg IP), intubated and ventilated with a small animal respirator (Edco Scientific Inc., Chapel Hill, N.C.) at a rate and tidal volume to maintain normal values of PaCO2 (35-45 mm Hg; PaCO2=systemic arterial blood carbon dioxide tension). The femoral vein and artery were cannulated for infusion of drugs and for continuous monitoring of systemic blood pressure, respectively. Aliquots of arterial blood (200 μl) were drawn periodically to measure blood gas tensions and pH (Instrumentation Laboratory Co., model 1304 blood gas/pH analyzer). The blood was replaced intravenously with three volumes of normal saline. The inspired O2 concentration was varied using premixed gases balanced with nitrogen. The tissue PO2 was measured continuously with polarographic platinum microelectrodes (50 μm O.D. coated with hydrophobic gas permeable Nafion) implanted stereotaxically in both the right and left hippocampus (AP−3.4 mm, ML+2.2 mm), caudate putamen nucleus and substantia nigra (see coordinates below) (Young, W., Stroke, 11:552-564 (1980); Heiss, W. D. and Traupett, H., Stroke, 12:161-167 (1981); Dewhirst, M. W. et al., Cancer Res., 54:3333-3336 (1994); Kerger, H. et al., Am. J. Physiol., 268:H802-H810 (1995)). The PO2 electrodes were polarized to −0.65V against a distant Ag/AgCl reference located on the tail and the current flow was measured using a low-impedance nA-meter. Regional arterial PO2 was adjusted by changing the inspired O2 concentration and atmospheric pressure.
Polarographic hydrogen (H2)-sensitive microelectrodes were implanted stereotaxically in the substantia nigra (AP −5.3 mm, ML −2.4 mm to the bregma, depth 3.2 mm), caudate putamen nucleus (CPN) (AP +0.8 mm, ML −2.5 mm, depth 5.2 mm) and parietal cortex, for measurement of regional blood flow (Young, W., Stroke, 11:552-564 (1980); Heiss, W. D. and Traupett, H., Stroke, 12:161-167 (1981)). The microelectrodes were made from platinum wire and insulated with epoxy, with the exception of the tip (1 mm) which was coated with Nafion. For placement, the electrodes were mounted on a micromanipulator and the rat's head was immobilized in a Kopf stereotaxic frame. H2-sensitive electrodes were polarized to +400 mV against a distant reference electrode on the tail, and the polarographic current was measured using a low-impedance nA meter during and after the inhalation of hydrogen gas (2.5%) for 1 min. Both the hydrogen clearance curves and voltage for oxygen measurements were made using PC WINDAQ (software, DI-200 AC, Dataq Instruments, Inc., Akron, Ohio). Cerebral blood flow was calculated using the initial slope method (Young, W., Stroke, 11:552-564 (1980); Heiss, W. D. and Traupett, H., Stroke, 12:161-167 (1981)). Regional blood flow responses were monitored for 30 min. prior to and 30 min. following drug administration; hemoglobins were given at time 0.
The cerebrovascular effects of SNO-Hb were measured in adult male Sprague-Dawley rats using O2 and H2 (blood flow)-sensitive microelectrodes that were placed stereotaxically in several regions of the brain as for Example 11.
Comparative effects of SNO-Hb (●) and Hb (▪) (1 μmol/kg infused over 3 minutes) on local blood flow in substantia nigra (SN), caudate putamen nucleus, and parietal cortex are shown for three different conditions. […] Baseline blood flow was decreased by ˜10% under 100% O2+3 ATA as compared to 100% O2. n=7 for all data points. Values of tissue/microvascular PO2 ranged from 19-37 mm Hg in 21% O2; from 68-138 mm Hg in 100% O2; and from 365-538 mm Hg in 100%+3 ATA (Duke University Medical Center Hyperbaric Chambers).

[3] = test system: rabbit thoracic aorta rings; test: Oxygen-dependent rabbit aortic ring bioassay of Hb, SNO-Hb, GSNO and SNO-RBCs
[4] = SNO-Hb decomposition and transnitrosation with glutathione; format: biochemical
Experimental: The decomposition of SNO-Hb(FeII) is further accelerated by the presence of excess glutathione. Within the dead time of our measurements (˜15 sec) a major fraction of SNO-Hb(FeII) was converted to GSNO.
Hbs in PBS (0.5 mM EDTA, pH 7.4) were incubated in air (oxy) or in a tonometer previously evacuated of O2 (deoxy). SNO-Hb(FeII)O2 decomposition was determined by the method of Saville (Saville, B., Analyst, 83:670-672 (1958)). Spontaneous decomposition of SNO-Hb(FeII) was followed spectrophotometrically by formation of Hb(FeII)NO. […] Rates of NO group transfer were too rapid to measure accurately by the standard methods used in this study.
Data are presented as the amount of GSNO formed relative to the starting SNO-Hb concentration.
Thiol/SNO-Hb exchange, forming GSNO, was verified chemically (Stamler, J. S., et al., Proc. Natl Acad. Sci. USA 89:444-448 (1992)) following trichloroacetic acid precipitation (n=5).

[5] = test system: Sprague-Dawley rat; test: Mean arterial pressure after femoral vein bolus of cell-free Hb and SNO-Hbs; format: in vivo
Text: Systemic administration of cell-free Hb results in hypertensive responses which have been attributed to NO scavenging by the heme (Vogel, W. M., et al., Am. J. Physiol. 251:H413-H420 (1986); Olsen, S. B., et al., Circulation 93:329-332 (1996)). To determine if SNO-Hb is free of this adverse affect, and to explore if in vitro mechanisms of NO release extend to the in vivo circumstance, we compared responses to Hb and SNO-Hb infused as a bolus into the femoral vein of anesthetized rats. […] Thus, the profiles of these compounds in vivo closely resemble those seen in vitro (FIG. 4A). […] These changes in mean blood pressure of ˜10% are on the order of those that differentiate normotension from hypertension in man, and in the therapeutic range of some antihypertensive regimens. […] The bioactivity of SNO-Hb in blood, where S—NO/heme stoichiometries approach 1:50,000, is a dramatic illustration of the resistence of this NO-related activity to Hb(Fe) inactivation.
Administration of 2-200 nmol/kg Hb(FeII)O2 (as a bolus) into the femoral vein of a Sprague-Dawley rat is shown to increase mean arterial pressure in a dose-dependent manner. At 200 nmol/kg, mean arterial pressure increased by 25 mm Hg (20±3 mm Hg; n=4; P<0.05). Elevations in blood pressure reversed within 10-15 min. SNO-Hb(FeII)O2 infusions (over the same dose range) are shown to ameliorate Hb(FeII)O2-induced hypertension without causing overt changes in blood pressure. […] A fall in blood pressure was also seen with injection of erythrocytes containing SNO-Hb.
Rats were anesthetized by intraperitoneal injection of pentobarbital and the femoral arteries and veins accessed by local cut down. The artery was then cannulated and the blood pressure monitored continuously using a Viggo Spectramed pressure transducer attached to a Gould recorder. An IBM PC (DATA Q Codas) was used for data acquisition.

[6] = test system: vascular ring; test: Vessel ring bioassay of SNO-Hb preparations, with or without glutathione
Text: Arterial red blood cells contain two physiologically important forms of hemoglobin: Hb(FeII)O2 and Hb(FeIII) (Antonini et al. (1971)). […] Such findings raise the possibility of functional consequences, perhaps influenced by the redox state of heme and its occupation by ligand.
Details of the vessel ring bioassay have been published (Stamler, J. S., et al., Proc. Natl. Acad. Sci. USA 89:444-448 (1992)). SNO-Hb(FeII)O2 preparations were synthesized with 10-fold excess S-nitrosocysteine (CYSNO) over Hb(FeII)O2 protein (2% borate, 0.5 mM EDTA, ˜15 min incubation), after which desalting was performed across Sephadex G-25 columns. CYSNO was synthesized in 0.5 N HCl, 0.5 mM EDTA and then neutralized (1:1) in 1 M phosphate buffer containing 0.5 mM EDTA. […] The latter was synthesized by treatment of Hb(FeII)O2 with excess ferricyanide, followed by desalting across G-25 columns. SNO-Hb concentrations were verified spectroscopically and the S-nitrosothiol content was determined by the method of Saville (Stamler, J. S., et al., Proc. Nat. Acad. Sci. USA 89:444-448 (1992)). The S-NO/tetramer stoichiometry for both SNO-Hb preparations was ˜2. Oxidation of the heme was undetectable by uv-spectrophotometric methods.

[7] = test system: rat red blood cells; test: S-nitrosylation of intraerythrocytic Hb (loading of red blood cells); format: cell-based; conditions: oxygenated rat red blood cells
Experimental: Given that Hb is largely contained within red blood cells, potential mechanisms by which S-nitrosylation of intracellular protein might occur were explored. […] Rapid oxidation of Hb was not observed under these conditions. […] Thus, erythrocyte access of RSNOs is thiol group specific.
Incubation of rat erythrocytes with S-nitrosocysteine (equimolar to heme (5 mM); phosphate buffer pH 7.4, 25° C.) leads to rapid formation of intracellular SNO-Hb(FeII)O2. […] By 60 min, 3 of the 4 available SH groups of Hb are S-nitrosylated (note that rat Hb contains 4 reactive SH groups). […] Spectrum A is that of SNO-Hb isolated from erythrocytes following G-25 chromatography. Treatment of A with dithionite results in reduction of the S—NO moiety, liberating free NO which is autocaptured by deoxy Hb, forming Hb(FeII)NO (note that dithionite simultaneously deoxygenates Hb) (spectrum C). […] The spectrum of Hb(FeII)NO containing 4 NO's per tetramer is shown for comparison (inset, spectrum B).
At shown intervals, red blood cells were pelleted rapidly by centrifugation, washed three times, lysed in deionized water at 4° C., and the cytosolic fraction subjected to rapid desalting across G-25 columns. Intracellular SNO-Hb was measured by the method of Saville (Gaston, B., et al., (1992); Stamler, J. S., et al., Proc. Natl. Acad. Sci. USA, 89:444-448 (1992)), and confirmed spectroscopically (inset of FIG. 3A) as described above.

In the case of S-nitrosohemoglobin [SNO-Hb], the “change in blood pressure” value [1] was “significantly less of an increase in blood pressure than Hb”, the “local cerebral blood flow” value ([2]; 21% O2) was “improved blood flow in all three regions of the brain tested” and the “local cerebral blood flow” value ([2]; 100% O2) was “significantly attenuated”. For the same molecule, the “local cerebral blood flow” value ([2]; 100% O2+3 ATA) was “tended to decrease cerebral flow to similar extents”, the “effect on tone of rings contracted with phenylephrine under hypoxia” value ([3]; 1 μM, 6-7 torr) was “caused relaxations” and the “effect of glutathione on vasorelaxant response” value ([3]; 10 μM glutathione, greatest at <1% O2) was “potentiates the vasorelaxant response”. For the same molecule, the “concentration-effect responses in R-structure” value ([3]; 95% O2) was “virtually identical to those of native Hb”.
In the case of “SNO-Hb(FeII): S-nitrosohemoglobin in the deoxy state”, the “rate of RSNO decomposition (and transfer)” value ([4]; deoxy versus oxy state, PBS pH 7.4) was “much faster in the deoxy conformation” and the “effect on vessel tone in T-structure” value ([3]; <1% O2 (˜6 torr)) was “modest effect on baseline tone”.
In the case of “SNO-Hb(FeIII): S-nitrosohemoglobin with heme oxidized to FeIII”, the “mean arterial pressure, post” value ([5]; after 200 nmol/kg (highest dose)) was 74±6 mm Hg, the “time for blood pressure to normalize” value ([5]; after hypotensive response) was 10 min and the “mean arterial pressure, pre” value ([5]; before 200 nmol/kg) was 108±4 mm Hg. For the same molecule, the blood pressure response ([5]; bolus, femoral vein, anesthetized rat) was “elicited hypotensive responses”, the “rate of NO group transfer to glutathione” value ([4]; SNO-Hb 100 μM, glutathione 10 mM, versus SNO-Hb(FeII)O2) was “more rapid” and the “effect of added glutathione on the dose-response” value ([6]; glutathione 100 μM in bioassay chambers) was “potentiates the dose-response”. For the same molecule, the “activity in vascular ring bioassay” value ([6]; no glutathione) was “vasodilator”.
In the case of N[C@@H](CCC(=O)N[C@@H](CSN=O)C(=O)NCC(=O)O)C(=O)O [S-nitrosoglutathione], the “change in blood pressure” value [1] was “decreased blood pressure”, the “formation of intraerythrocytic SNO-Hb” value [7] was “not” and the brain perfusion ([2]; 100% O2 and 100% O2+3 ATA) was “increased brain perfusion”. For the same molecule, the “O2 dependence of vasorelaxant effects” value ([3]; 95%, 21%, <1% O2) was “largely independent of PO2”.
